Assay results as given in paper PMC10634366 (Microbiology, 2023).

Assays:
Asuc_0142 (DcuAAs) [1] = target: T1, Asuc_0142 (DcuAAs) (Actinobacillus succinogenes, UniProt A6VKM5); assay: inhibition of […] min […]fumarate uptake, E. coli IMW529 cells; format: cell-based; conditions: read-out: % inhibition at 1 mM
T1 construct: full-length gene from 130Z genomic DNA in pBAD30-derived pMB61 (pMB147), expressed in E. coli IMW529 lacking DcuA, DcuB, DcuC, TtdT and CitT

Asuc_0142 (DcuAAs) [2] = target: T1, Asuc_0142 (DcuAAs); assay: as above; format: cell-based; conditions: 100 µM [14C]fumarate; anaerobic, pH 7, 37 °C

inhibition at 1000 µM (Asuc_0142 (DcuAAs) [1])	SMILES	% inhibition at 1 mM (Asuc_0142 (DcuAAs) [2])
95%	N[C@@H](CC(=O)O)C(=O)O [L-aspartate]	–
–	O=C(O)C[C@H](O)C(=O)O [L-malate]	the inhibition by succinate and L-malate was only moderate
82%	O=C(O)/C=C/C(=O)O [fumarate]	–
–	O=C(O)CCC(=O)O [succinate]	the inhibition by succinate and L-malate was only moderate
